ChEMBL document CHEMBL1201862, “PubChem BioAssay data set” (2004)
Activity calls are given as the source filed them.

Key:
[1] = Luminescence Cell-Based Dose Response HTS to Identify Inhibitors of Luciferase Translation or Activity in H4-C Neuroglioblastoma Cells. [Related pubchem assays: 1813 (Primary HTS), 1827 (Project Summary)]; assay type: functional
[2] = Luminescence Cell-Based Dose Response HTS to Identify Activators of Luciferase Translation or Activity in H4-C Neuroglioblastoma Cells. [Related pubchem assays: 1829 (Project Summary), 1814 (Primary HTS)]; assay type: functional
[3] = luciferase reporter signal suppression in cells – H4 neuroglioma cells, luminescence, dose response (AID 1990); assay type: functional, cell-based
[4] = Luminescence Cell-Based Dose Retest to Confirm Activators of 5'UTR Stem-Loop Driven Alpha-Synuclein mRNA Translation in H4 Neuroglioblastoma Cells. [Related pubchem assays (depositor defined):AID1813, AID1829]; assay type: functional
[5] = Luminescence Cell-Based Dose Response HTS to Identify Activators of 5'UTR Stem-Loop Driven Prion Protein mRNA Translation in H4-C Neuroglioblastoma Cells. [Related pubchem assays: 1829 (Project Summary), 1814 (Primary HTS)]; assay type: functional
[6] = Luminescence Cell-Based Dose HTS Response to Identify Inhibitors of 5'UTR Stem-Loop Driven Prion Protein mRNA Translation in H4-C Neuroglioblastoma Cells. [Related pubchem assays (depositor defined):AID1814, AID1827]; assay type: functional
[7] = alpha-synuclein stem-loop luciferase translation blockers – H4 neuroglioma cells, luminescence, confirmation (AID 1988); assay type: functional, cell-based
[8] = Luminescence Cell-Based Dose Confirmation HTS to Identify Inhibitors of 5'UTR Stem-Loop Driven Alpha-Synuclein mRNA Translation in H4 Neuroglioblastoma Cells. [Related pubchem assays: 1827 (Project Summary), 1813 (Primary HTS)]; assay type: functional
[9] = HEK-293T viability loss after treatment – luminescence, T-cell screen hits, cytotoxicity control for TCR NF-kB inhibitor project, dose response (AID 489026); assay type: functional, cell-based;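 further: cells exposed to compound about 14 hours before the viability readout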
Mu-type opioid receptor [10] = biological target: T1, Mu-type opioid receptor (Homo sapiens, UniProt P35372); assay: SAR Analysis of Antagonists of the MOR Receptor using an Image-Based Assay - Set 2. [Related pubchem assays (depositor defined):AID1777, AID1785, AID1786, AID1966, AID2133, AID2136, AID2284, AID2285, AID2420]; assay type: functional
T1 sequence (P35372 whole entry): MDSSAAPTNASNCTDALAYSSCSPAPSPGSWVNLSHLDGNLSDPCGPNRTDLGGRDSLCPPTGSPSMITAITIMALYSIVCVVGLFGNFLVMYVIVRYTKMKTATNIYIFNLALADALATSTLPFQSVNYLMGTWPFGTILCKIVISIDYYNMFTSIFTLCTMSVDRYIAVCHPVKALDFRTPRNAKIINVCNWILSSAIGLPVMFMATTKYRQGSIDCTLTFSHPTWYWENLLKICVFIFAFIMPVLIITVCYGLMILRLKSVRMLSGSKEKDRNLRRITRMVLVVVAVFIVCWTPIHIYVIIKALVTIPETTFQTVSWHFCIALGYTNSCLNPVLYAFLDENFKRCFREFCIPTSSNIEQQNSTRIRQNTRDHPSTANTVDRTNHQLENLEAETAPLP

[11] = biological target: T2, Kappa-type opioid receptor (Homo sapiens, UniProt P41145); assay: SAR analysis of Antagonists of the Kappa Opioid Receptor (KOR) using an Image-Based Assay - Set 2. [Related pubchem assays (depositor defined):AID1777, AID1785, AID1786, AID1966, AID2133, AID2136, AID2284, AID2285, AID2348]; assay type: functional
T2 sequence (P41145 whole entry): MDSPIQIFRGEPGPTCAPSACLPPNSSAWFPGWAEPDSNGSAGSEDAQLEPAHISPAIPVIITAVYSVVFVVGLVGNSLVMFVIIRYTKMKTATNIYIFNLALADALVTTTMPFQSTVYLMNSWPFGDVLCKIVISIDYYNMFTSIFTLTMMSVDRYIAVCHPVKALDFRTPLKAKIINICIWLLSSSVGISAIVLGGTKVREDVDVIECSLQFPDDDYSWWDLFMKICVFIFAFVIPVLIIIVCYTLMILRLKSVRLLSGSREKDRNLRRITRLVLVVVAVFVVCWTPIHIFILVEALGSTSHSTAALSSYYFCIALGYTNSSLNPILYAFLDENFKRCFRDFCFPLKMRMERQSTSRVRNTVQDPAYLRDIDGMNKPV

Mu-type opioid receptor [12] = biological target: T1, Mu-type opioid receptor; assay: SAR Analysis of Agonists of the MOR Receptor using an Image-Based Assay - Set 2. [Related pubchem assays (depositor defined):AID1777, AID1785, AID1786, AID1966, AID2133, AID2136, AID2284, AID2285, AID2352]; assay type: functional
[13] = biological target: T2, Kappa-type opioid receptor; assay: SAR analysis of small molecule agonists of the kappa opioid receptor via a luminescent beta-arrestin assay - Set 2. [Related pubchem assays (depositor defined):AID1777, AID1785, AID1786, AID1966, AID2133, AID2136, AID2284, AID449737]; assay type: functional
[14] = biological target: T3, Delta-type opioid receptor (Homo sapiens, UniProt P41143); assay: SAR Analysis of Agonists of the DOR Receptor using an Image-Based Assay - Set 2. [Related pubchem assays (depositor defined):AID1777, AID1785, AID1786, AID1966, AID2133, AID2136, AID2284, AID2285, AID2370]; assay type: functional
T3 sequence (P41143 whole entry): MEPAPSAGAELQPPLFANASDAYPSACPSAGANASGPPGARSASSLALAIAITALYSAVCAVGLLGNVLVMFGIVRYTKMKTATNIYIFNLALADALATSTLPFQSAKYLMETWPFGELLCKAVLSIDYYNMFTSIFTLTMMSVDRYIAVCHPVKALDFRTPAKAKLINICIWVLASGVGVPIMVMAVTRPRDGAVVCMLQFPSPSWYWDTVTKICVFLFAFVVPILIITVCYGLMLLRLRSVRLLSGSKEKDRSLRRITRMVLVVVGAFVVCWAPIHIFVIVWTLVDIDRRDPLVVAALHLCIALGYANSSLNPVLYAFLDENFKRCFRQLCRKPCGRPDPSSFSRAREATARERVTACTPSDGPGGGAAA

[15] = biological target: T3, Delta-type opioid receptor; assay: SAR Analysis of Antagonists of the DOR Receptor using an Image-Based Assay - Set 2. [Related pubchem assays (depositor defined):AID1777, AID1785, AID1786, AID1966, AID2133, AID2136, AID2284, AID2285, AID2357]; assay type: functional
[16] = biological target: T2, Kappa-type opioid receptor; assay: SAR analysis of Agonists of the Kappa Opioid Receptor (KOR) using an Image-Based Assay - Set 2. [Related pubchem assays (depositor defined):AID1777, AID1786, AID1966, AID2133, AID2136, AID2284, AID2285, AID2359]; assay type: functional
[17] = biological target: T4, G-protein coupled receptor 35 (Homo sapiens, UniProt Q9HC97); assay: SAR analysis of Agonists of the GPR35 Receptor using an Image-Based Assay - Set 4. [Related pubchem assays (depositor defined):AID2013, AID2026]; assay type: functional
T4 sequence (Q9HC97 whole entry): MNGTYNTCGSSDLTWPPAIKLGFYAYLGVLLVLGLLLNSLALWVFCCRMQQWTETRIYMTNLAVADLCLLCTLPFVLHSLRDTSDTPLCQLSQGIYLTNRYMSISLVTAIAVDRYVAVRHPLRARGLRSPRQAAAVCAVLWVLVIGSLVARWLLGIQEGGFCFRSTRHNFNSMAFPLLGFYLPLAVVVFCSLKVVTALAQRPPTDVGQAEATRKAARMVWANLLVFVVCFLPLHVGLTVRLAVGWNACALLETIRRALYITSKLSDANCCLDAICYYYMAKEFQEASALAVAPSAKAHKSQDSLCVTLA

Cannabinoid receptor 1 [18] = biological target: T5, Cannabinoid receptor 1 (Homo sapiens, UniProt P21554); assay: SAR analysis of agonists of the Cannabinoid Receptor 1 using an Image-Based Assay - Set 4. [Related pubchem assays (depositor defined):AID2013, AID2026]; assay type: functional
T5 sequence (P21554 whole entry): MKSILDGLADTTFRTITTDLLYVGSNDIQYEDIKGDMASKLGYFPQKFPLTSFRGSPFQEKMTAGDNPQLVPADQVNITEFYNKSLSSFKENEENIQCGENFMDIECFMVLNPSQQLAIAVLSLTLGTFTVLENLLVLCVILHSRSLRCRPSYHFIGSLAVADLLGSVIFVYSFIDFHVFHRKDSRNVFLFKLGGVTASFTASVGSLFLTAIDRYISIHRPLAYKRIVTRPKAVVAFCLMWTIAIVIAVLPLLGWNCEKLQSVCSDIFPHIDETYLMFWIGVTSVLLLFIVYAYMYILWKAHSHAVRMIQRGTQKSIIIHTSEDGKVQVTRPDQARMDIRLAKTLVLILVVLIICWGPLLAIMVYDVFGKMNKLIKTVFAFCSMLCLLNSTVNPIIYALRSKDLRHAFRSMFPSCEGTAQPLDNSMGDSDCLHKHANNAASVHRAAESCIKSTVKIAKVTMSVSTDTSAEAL

[19] = biological target: T4, G-protein coupled receptor 35; assay: SAR analysis of Antagonists of the GPR35 Receptor using an Image-Based Assay - Set 6. [Related pubchem assays (depositor defined):AID2013, AID2026]; assay type: functional
Cannabinoid receptor 1 [20] = biological target: T5, Cannabinoid receptor 1; assay: SAR analysis of antagonists of the Cannabinoid Receptor 1 using an Image-Based Assay - Set 4. [Related pubchem assays (depositor defined):AID2013, AID2026]; assay type: functional
[21] = biological target: G-protein coupled receptor 55 (Homo sapiens, UniProt Q9Y2T6); assay: SAR Analysis of Selective Antagonists of GPR55 using an Image-Based Assay - Set 4. [Related pubchem assays (depositor defined):AID2013, AID2026]; assay type: functional;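 further: antagonism of response to 5 µM lysophosphatidylinositol agonist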
Chain of G-protein coupled receptor 55 (Q9Y2T6 whole entry): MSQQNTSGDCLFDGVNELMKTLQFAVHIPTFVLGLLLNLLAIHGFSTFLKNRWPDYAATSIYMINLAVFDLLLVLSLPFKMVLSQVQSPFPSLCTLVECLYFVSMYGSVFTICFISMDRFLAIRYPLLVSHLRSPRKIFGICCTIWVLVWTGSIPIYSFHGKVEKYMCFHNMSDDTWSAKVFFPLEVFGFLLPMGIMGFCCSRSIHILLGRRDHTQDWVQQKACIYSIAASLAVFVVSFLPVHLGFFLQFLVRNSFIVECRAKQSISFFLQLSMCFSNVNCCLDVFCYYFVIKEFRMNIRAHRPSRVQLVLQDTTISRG

Cannabinoid receptor 2 [22] = biological target: T6, Cannabinoid receptor 2 (Homo sapiens, UniProt P34972); assay: SAR analysis of antagonists of the Cannabinoid Receptor 2 using an Image-Based Assay - Set 3. [Related pubchem assays (depositor defined):AID2013, AID2026]; assay type: functional
T6 sequence (P34972 whole entry): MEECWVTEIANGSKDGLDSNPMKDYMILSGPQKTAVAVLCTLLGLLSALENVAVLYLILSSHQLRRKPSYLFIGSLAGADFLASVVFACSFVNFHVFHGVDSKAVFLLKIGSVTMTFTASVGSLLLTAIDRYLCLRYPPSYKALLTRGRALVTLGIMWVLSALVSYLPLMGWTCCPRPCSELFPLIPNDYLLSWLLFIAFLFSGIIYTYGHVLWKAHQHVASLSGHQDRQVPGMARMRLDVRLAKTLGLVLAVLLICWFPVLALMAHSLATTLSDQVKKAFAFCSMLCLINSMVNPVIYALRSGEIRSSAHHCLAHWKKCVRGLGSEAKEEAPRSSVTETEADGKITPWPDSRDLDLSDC

Cannabinoid receptor 2 [23] = biological target: T6, Cannabinoid receptor 2; assay: SAR analysis of agonists of the Cannabinoid Receptor 2 using an Image-Based Assay - Set 3. [Related pubchem assays (depositor defined):AID2013, AID2026]; assay type: functional
[24] = biological target: T3, Delta-type opioid receptor; assay: HTS Image-Based Screen for Antagonists of the DOR Receptor. [Related pubchem assays (depositor defined):AID1777, AID1785, AID1786, AID2133]; assay type: functional
Mu-type opioid receptor [25] = biological target: T1, Mu-type opioid receptor; assay: HTS Image-Based Screen for Agonists of the MOR Receptor. [Related pubchem assays (depositor defined):AID1777, AID1785, AID1786, AID2133]; assay type: functional
[26] = system: Streptococcus sp. 'group A'; assay: Streptococcus pyogenes SK(-)GAS viability under kanamycin – luminescence, BacTiterGlo, confirmation, counter-screen for streptokinase expression inhibitor project, dose response (AID 1900); assay type: functional, organism-based
[27] = biological target: T3, Delta-type opioid receptor; assay: HTS Image-Based Screen for Agonists of the DOR Receptor. [Related pubchem assays (depositor defined):AID1777, AID1786, AID2133]; assay type: functional
[28] = Trypanosoma cruzi growth suppression in host cells – NIH3T3 host cells, beta-gal luminescence, confirmation (AID 2044); assay type: functional, cell-based;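 further: intracellular parasites grown in NIH/3T3 mouse fibroblasts as host cells; luminescent beta-galactosidase reporter signal from transgenic T. cruzi replicating inside host cells; inhibitors lower the luminescence signal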
[29] = biological target: T2, Kappa-type opioid receptor; assay type: functional
[30] = biological target: Voltage-gated inwardly rectifying potassium channel KCNH2 (Homo sapiens, UniProt Q12809); assay: concentration-dependent hERG rescue from blockers – cell-based, thallium flux, dose response (AID 2121); assay type: ADME
Chain of Voltage-gated inwardly rectifying potassium channel KCNH2 (Q12809 whole entry): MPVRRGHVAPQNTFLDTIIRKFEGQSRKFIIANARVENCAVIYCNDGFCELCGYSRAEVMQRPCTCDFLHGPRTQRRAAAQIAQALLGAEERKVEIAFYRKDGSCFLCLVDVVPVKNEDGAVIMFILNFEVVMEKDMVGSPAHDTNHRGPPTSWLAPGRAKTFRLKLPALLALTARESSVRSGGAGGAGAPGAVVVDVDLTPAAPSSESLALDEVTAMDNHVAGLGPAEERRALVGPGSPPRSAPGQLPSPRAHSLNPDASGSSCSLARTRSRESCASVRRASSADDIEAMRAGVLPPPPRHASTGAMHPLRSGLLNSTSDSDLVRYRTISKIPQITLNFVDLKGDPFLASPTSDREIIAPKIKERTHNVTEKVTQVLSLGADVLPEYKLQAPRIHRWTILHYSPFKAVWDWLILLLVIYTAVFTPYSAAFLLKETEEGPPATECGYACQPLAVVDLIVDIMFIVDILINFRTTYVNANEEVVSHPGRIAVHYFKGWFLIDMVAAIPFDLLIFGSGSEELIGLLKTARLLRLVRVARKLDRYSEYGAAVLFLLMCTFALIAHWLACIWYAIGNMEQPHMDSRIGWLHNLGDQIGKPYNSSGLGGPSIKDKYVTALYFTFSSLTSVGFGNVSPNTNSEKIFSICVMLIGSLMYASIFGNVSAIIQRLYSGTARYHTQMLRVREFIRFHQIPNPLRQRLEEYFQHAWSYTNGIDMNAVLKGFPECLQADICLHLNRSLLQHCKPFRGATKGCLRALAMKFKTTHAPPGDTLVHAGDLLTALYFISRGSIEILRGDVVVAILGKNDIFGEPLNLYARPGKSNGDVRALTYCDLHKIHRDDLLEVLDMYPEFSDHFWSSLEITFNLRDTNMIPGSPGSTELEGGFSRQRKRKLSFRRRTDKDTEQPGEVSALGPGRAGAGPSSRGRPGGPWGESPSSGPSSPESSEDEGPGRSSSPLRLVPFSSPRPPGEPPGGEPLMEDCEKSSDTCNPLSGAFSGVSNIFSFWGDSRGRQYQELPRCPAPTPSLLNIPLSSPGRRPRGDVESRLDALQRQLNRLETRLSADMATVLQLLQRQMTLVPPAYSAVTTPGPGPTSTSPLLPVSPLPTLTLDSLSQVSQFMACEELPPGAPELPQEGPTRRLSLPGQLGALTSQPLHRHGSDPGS

Beta-galactosidase = Beta-galactosidase (Escherichia coli, UniProt Q8VNN2); assay type: functional
Chain of Beta-galactosidase (Q8VNN2 whole entry): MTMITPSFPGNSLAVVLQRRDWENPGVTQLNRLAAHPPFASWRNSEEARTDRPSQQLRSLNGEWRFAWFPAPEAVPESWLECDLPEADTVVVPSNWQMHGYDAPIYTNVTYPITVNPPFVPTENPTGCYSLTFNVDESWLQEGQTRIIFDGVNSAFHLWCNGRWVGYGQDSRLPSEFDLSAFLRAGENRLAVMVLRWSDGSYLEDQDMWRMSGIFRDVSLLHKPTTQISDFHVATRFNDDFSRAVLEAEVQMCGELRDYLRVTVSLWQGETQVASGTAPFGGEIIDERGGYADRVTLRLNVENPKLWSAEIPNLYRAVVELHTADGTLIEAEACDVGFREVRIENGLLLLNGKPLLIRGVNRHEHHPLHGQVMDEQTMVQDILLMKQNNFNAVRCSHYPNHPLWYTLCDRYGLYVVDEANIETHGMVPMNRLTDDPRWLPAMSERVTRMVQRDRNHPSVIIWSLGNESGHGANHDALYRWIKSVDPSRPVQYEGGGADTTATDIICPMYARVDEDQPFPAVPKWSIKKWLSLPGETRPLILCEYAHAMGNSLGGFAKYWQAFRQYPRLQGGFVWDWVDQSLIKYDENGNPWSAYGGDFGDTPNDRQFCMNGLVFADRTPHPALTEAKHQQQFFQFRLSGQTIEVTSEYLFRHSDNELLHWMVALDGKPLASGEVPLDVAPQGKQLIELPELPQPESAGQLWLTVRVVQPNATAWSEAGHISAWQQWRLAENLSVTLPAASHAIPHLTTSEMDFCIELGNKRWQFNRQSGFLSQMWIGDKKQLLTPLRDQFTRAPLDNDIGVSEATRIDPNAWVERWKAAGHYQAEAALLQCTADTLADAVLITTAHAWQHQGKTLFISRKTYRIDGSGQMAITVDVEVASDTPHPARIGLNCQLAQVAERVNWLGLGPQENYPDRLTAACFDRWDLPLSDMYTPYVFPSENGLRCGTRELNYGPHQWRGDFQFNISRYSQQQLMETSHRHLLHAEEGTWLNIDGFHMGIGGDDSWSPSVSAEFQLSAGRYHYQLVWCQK

[31] = biological target: T2, Kappa-type opioid receptor; assay type: functional; remark: listed apart in the source
Streptococcus = assay: GAS UMAA2166 growth inhibition – luminescence, BacTiterGlo, counter-screen for streptokinase expression inhibitor project, dose response (AID 1915); assay type: functional, organism-based;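 further: potency for reduction of bacterial viability or growth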

## COc1ccc(/C=C/C(=O)c2cc(F)ccc2OC(=O)c2ccccc2)cc1OC
[1]
  EC50: 0.697 µM (active)
[2]
  EC50: 0.697 µM (inconclusive)
[3]
  EC50: 12.8 µM (active)
[4]
  EC50: 0.666 µM (inconclusive)
[5]
  EC50: 0.699 µM (inconclusive)
[6]
  EC50: 0.699 µM (active)
[7]
  EC50: < 0.195 µM (active)
[8]
  EC50: 0.666 µM (active)
[9]
  IC50: > 80 µM (inactive)

## CCc1ccc(S(=O)(=O)NCc2ccc(C(=O)NCCN(Cc3ccccc3)C(C)C)cc2)cc1
Mu-type opioid receptor [10]
  IC50: > 32 µM (inactive)
[11]
  IC50: 2.55 µM (active)
Mu-type opioid receptor [12]
  EC50: > 32 µM (inactive)
[13]
  EC50: > 20 µM (inactive)
[14]
  EC50: > 32 µM (inactive)
[15]
  IC50: > 32 µM (inactive)
[16]
  EC50: > 32 µM (inactive)

## O=C(N1CCC(n2nc(-c3ccccc3)oc2=O)CC1)C1(c2ccccc2)CCCC1
[17]
  EC50: > 32 µM (inactive)
Cannabinoid receptor 1 [18]
  EC50: > 32 µM (inactive)
[19]
  IC50: > 32 µM (inactive)
Cannabinoid receptor 1 [20]
  IC50: 1.98 µM (active)
[21]
  IC50: 2.7 µM (active)
Cannabinoid receptor 2 [22]
  IC50: 14 µM (inactive)
Cannabinoid receptor 2 [23]
  EC50: > 32 µM (inactive)

## COc1ccc(/C=C2\SC(=N)N(c3nccs3)C2=O)cc1OC
[24]
  IC50: > 32 µM (inactive)
Mu-type opioid receptor [25]
  EC50: > 32 µM (inactive)
[26]
  EC50: 1.69 µM (active)
[27]
  EC50: > 32 µM (inactive)
[28]
  EC50: 3.66 µM (active)
[29]
  IC50: 7.22 µM (active)
[30]
  EC50: 84.7 µM (active)
Beta-galactosidase
  EC50: > 31.5 µM (inactive)
[31]
  IC50: > 32 µM
Streptococcus
  EC50: 3.61 µM (active)
